Patent EP4806910A1, “TRI-AGONIST COMPOUND” (priority 2023, dated 2025)
Read-outs that look alike come from different tables or passages of the source.

Key:
Assay type in all cases: cell-based
[1] = biological target: T1, GLP-1R (Homo sapiens, UniProt P43220); experiment: GLP-1 activity test (cAMP, chemiluminescence)
T1 construct: expressed in transfected cells; host or cells: CHO-K1
Method: (§1) Upon stimulation by a specific agonist, GLP-1R activates the intracellular adenylate cyclase signaling pathway, resulting in an increase in cAMP levels and ultimately leading to insulin production and secretion. A cell line stably transfected with GLP-1R was stimulated with test compounds, thereby rapidly increasing intracellular cAMP levels. The relative luminescence units (RLU) of cells stimulated at various concentrations were measured by a chemiluminescence method, and the EC50 value of the agonist was calculated accordingly. This activity test method is currently a commonly used method for evaluating GLP-1 receptor agonist activity both domestically and internationally. A CHO-K1 cell line stably expressing GLP-1R was used. The stable cells were stimulated with agonists at different concentrations, and the relative luminescence units after stimulation at each concentration were measured to calculate the EC50 value of the agonist.

[2] = biological target: T2, GIPR (Homo sapiens, UniProt P48546); experiment: GIP activity test (cAMP, chemiluminescence)
T2 construct: expressed in transfected cells; host or cells: CHO-K1
T2 sequence (P48546 22-466): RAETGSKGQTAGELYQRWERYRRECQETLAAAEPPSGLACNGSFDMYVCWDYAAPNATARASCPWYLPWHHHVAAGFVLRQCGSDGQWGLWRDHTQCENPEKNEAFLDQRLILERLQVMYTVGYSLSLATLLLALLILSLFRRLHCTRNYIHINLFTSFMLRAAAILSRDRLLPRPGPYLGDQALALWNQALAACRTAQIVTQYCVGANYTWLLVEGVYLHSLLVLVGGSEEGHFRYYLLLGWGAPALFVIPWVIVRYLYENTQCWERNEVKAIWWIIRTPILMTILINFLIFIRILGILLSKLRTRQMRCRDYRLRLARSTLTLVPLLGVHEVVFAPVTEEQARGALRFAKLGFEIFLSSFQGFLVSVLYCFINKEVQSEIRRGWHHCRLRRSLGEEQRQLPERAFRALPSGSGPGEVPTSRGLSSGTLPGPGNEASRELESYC
Method: as §1, with “agonist, GIPR” for “agonist, GLP-1R”, “with GIPR” for “with GLP-1R”, “activity assay” for “activity test”, “evaluating GIP” for “evaluating GLP-1”, “expressing GIPR” for “expressing GLP-1R”

[3] = biological target: T3, GCG-R (Homo sapiens, UniProt P47871); experiment: GCG activity test (cAMP, chemiluminescence)
T3 construct: expressed in transfected cells; host or cells: CHO-K1
T3 sequence (P47871 26-477, species assumed): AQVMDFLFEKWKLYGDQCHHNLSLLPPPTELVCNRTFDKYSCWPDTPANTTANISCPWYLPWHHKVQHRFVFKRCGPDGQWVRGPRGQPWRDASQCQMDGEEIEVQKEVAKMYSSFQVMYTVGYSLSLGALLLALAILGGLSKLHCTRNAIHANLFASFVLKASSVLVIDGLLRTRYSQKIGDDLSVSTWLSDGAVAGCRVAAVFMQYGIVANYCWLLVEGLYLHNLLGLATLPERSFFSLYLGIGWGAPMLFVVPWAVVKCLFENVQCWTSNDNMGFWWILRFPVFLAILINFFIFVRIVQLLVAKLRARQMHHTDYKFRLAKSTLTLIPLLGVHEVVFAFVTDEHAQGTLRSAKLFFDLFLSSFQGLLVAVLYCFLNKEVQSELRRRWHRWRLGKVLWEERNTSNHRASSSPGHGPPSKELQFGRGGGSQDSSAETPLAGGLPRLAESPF
Method: Upon stimulation by a specific agonist, GCG-R activates the intracellular adenylate cyclase signaling pathway, resulting in an increase in cAMP levels and ultimately leading to insulin production and secretion. A cell line stably transfected with GCG-R was stimulated with test compounds, thereby rapidly increasing intracellular cAMP levels. The relative luminescence units (RLU) of cells stimulated at various concentrations were measured by a chemiluminescence method, and the EC50 value of the agonist was calculated accordingly. This activity assay method is currently a commonly used method for evaluating GCG receptor agonist activity both domestically and internationally.
A CHO-K1 cell line stably expressing GCG-R was used. The stable cells were stimulated with agonists at different concentrations, and the relative luminescence units after stimulation at each concentration were measured to calculate the EC50 value of the agonist.

T1 sequence (P43220 24-463, species assumed): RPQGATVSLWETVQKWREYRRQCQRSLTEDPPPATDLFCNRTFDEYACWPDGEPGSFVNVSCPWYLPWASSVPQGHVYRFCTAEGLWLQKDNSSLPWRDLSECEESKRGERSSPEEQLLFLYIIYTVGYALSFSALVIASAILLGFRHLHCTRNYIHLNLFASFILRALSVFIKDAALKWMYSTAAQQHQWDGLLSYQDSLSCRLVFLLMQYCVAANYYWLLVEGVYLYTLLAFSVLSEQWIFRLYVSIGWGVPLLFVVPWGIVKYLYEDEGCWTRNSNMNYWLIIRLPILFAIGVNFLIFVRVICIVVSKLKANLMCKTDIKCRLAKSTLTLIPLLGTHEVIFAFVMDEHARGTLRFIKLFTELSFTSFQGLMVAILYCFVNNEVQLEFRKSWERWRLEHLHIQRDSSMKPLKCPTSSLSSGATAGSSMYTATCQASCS

SMILES | EC50 [1] | EC50 [2] | EC50 [3] | EC50 ([1]; CHO-K1 cell line stably expressing GLP-1R, cAMP, relative luminescence units, read-out: GLP-1 [EC50(pmol)]) | EC50 ([2]; CHO-K1 cell line stably expressing GIPR, cAMP, relative luminescence units, read-out: GIP [EC50(pmol)]) | EC50 ([3]; CHO-K1 cell line stably expressing GCG-R, cAMP, relative luminescence units, read-out: GCG [EC50(pmol)])
CC[C@H](C)[C@H](NC(=O)[C@H](Cc1ccccc1)NC(=O)[C@H](C)NC(=O)C(C)(C)NC(=O)[C@H](CCC(N)=O)NC(=O)[C@H](C)NC(=O)[C@H](CCCCNC(=O)COCCOCCNC(=O)COCCOCCNC(=O)CC[C@H](NC(=O)CCCCCCCCCCCCCCCCCCC(=O)O)C(=O)O)NC(=O)[C@H](CCCCN)NC(=O)[C@H](CC(=O)O)NC(=O)[C@H](CC(C)C)NC(=O)C(C)(CC(C)C)NC(=O)[C@@H](NC(=O)[C@H](CO)NC(=O)[C@H](Cc1ccc(O)cc1)NC(=O)[C@H](CC(=O)O)NC(=O)[C@H](CO)NC(=O)[C@@H](NC(=O)C(C)(Cc1ccccc1)NC(=O)[C@@H](NC(=O)CNC(=O)[C@H](CCC(N)=O)NC(=O)C(C)(C)NC(=O)[C@@H](N)Cc1ccc(O)cc1)[C@@H](C)O)[C@@H](C)O)[C@@H](C)CC)C(=O)N[C@@H](CCC(=O)O)C(=O)N[C@@H](Cc1ccc(O)cc1)C(=O)N[C@@H](CC(C)C)C(=O)N[C@@H](CC(C)C)C(=O)N[C@@H](CCC(=O)O)C(=O)NCCCCC(=O)N1CCC[C@H]1C(=O)N[C@@H](CO)C(=O)N[C@@H](CO)C(=O)NCC(=O)N[C@@H](C)C(=O)N1CCC[C@H]1C(=O)N1CCC[C@H]1C(=O)N1CCC[C@H]1C(=O)N[C@@H](CO)C(N)=O (stereo partly drawn) [Compound 9] | 0.0519 nM | 0.0268 nM | 0.307 nM |  |  | 
CC[C@H](C)[C@H](NC(=O)[C@H](Cc1ccccc1)NC(=O)[C@H](C)NC(=O)C(C)(C)NC(=O)[C@H](CCC(N)=O)NC(=O)[C@H](C)NC(=O)[C@H](CCCCNC(=O)COCCOCCOCCOCCOCCNC(=O)CC[C@H](NC(=O)CCCCCCCCCCCCCCCCCCC(=O)O)C(=O)O)NC(=O)[C@H](CCCCN)NC(=O)[C@H](CC(=O)O)NC(=O)[C@H](CC(C)C)NC(=O)C(C)(CC(C)C)NC(=O)[C@@H](NC(=O)[C@H](CO)NC(=O)[C@H](Cc1ccc(O)cc1)NC(=O)[C@H](CC(=O)O)NC(=O)[C@H](CO)NC(=O)[C@@H](NC(=O)C(C)(Cc1ccccc1)NC(=O)[C@@H](NC(=O)CNC(=O)[C@H](CCC(N)=O)NC(=O)C(C)(C)NC(=O)[C@@H](N)Cc1ccc(O)cc1)[C@@H](C)O)[C@@H](C)O)[C@@H](C)CC)C(=O)N[C@@H](CCC(=O)O)C(=O)N[C@@H](Cc1ccc(O)cc1)C(=O)N[C@@H](CC(C)C)C(=O)N[C@@H](CC(C)C)C(=O)N[C@@H](CCC(=O)O)C(=O)NCCCCC(=O)N1CCC[C@H]1C(=O)N[C@@H](CO)C(=O)N[C@@H](CO)C(=O)NCC(=O)N[C@@H](C)C(=O)N1CCC[C@H]1C(=O)N1CCC[C@H]1C(=O)N1CCC[C@H]1C(=O)N[C@@H](CO)C(N)=O (stereo partly drawn) [Compound 10] | 0.0494 nM | 0.0256 nM | 0.299 nM |  |  | 
CC[C@H](C)[C@H](NC(=O)[C@H](Cc1ccccc1)NC(=O)[C@H](C)NC(=O)C(C)(C)NC(=O)[C@H](CCC(N)=O)NC(=O)[C@H](C)NC(=O)[C@H](CCCCNC(=O)COCCOCCNC(=O)COCCOCCNC(=O)CC[C@H](NC(=O)CCCCCCCCCCCCCCCCCCC(=O)O)C(=O)O)NC(=O)[C@H](CCCCN)NC(=O)[C@H](CC(=O)O)NC(=O)[C@H](CC(C)C)NC(=O)C(C)(CC(C)C)NC(=O)[C@@H](NC(=O)[C@H](CO)NC(=O)[C@H](Cc1ccc(O)cc1)NC(=O)[C@H](CC(=O)O)NC(=O)[C@H](CO)NC(=O)[C@@H](NC(=O)C(C)(Cc1ccccc1F)NC(=O)[C@@H](NC(=O)CNC(=O)[C@H](CCC(N)=O)NC(=O)C(C)(C)NC(=O)[C@@H](N)Cc1ccc(O)cc1)[C@@H](C)O)[C@@H](C)O)[C@@H](C)CC)C(=O)N[C@@H](CCC(=O)O)C(=O)N[C@@H](Cc1ccc(O)cc1)C(=O)N[C@@H](CC(C)C)C(=O)N[C@@H](CC(C)C)C(=O)N[C@@H](CCC(=O)O)C(=O)NCCCCC(=O)N1CCC[C@H]1C(=O)N[C@@H](CO)C(=O)N[C@@H](CO)C(=O)NCC(=O)N[C@@H](C)C(=O)N1CCC[C@H]1C(=O)N1CCC[C@H]1C(=O)N1CCC[C@H]1C(=O)N[C@@H](CO)C(N)=O (stereo partly drawn) [Compound 11] | 0.0487 nM | 0.0253 nM | 0.174 nM |  |  | 
CC[C@H](C)[C@H](NC(=O)[C@H](Cc1ccccc1)NC(=O)[C@H](C)NC(=O)C(C)(C)NC(=O)[C@H](CCC(N)=O)NC(=O)[C@H](C)NC(=O)[C@H](CCCCNC(=O)COCCOCCOCCOCCOCCNC(=O)CC[C@H](NC(=O)CCCCCCCCCCCCCCCCCCC(=O)O)C(=O)O)NC(=O)[C@H](CCCCN)NC(=O)[C@H](CC(=O)O)NC(=O)[C@H](CC(C)C)NC(=O)C(C)(CC(C)C)NC(=O)[C@@H](NC(=O)[C@H](CO)NC(=O)[C@H](Cc1ccc(O)cc1)NC(=O)[C@H](CC(=O)O)NC(=O)[C@H](CO)NC(=O)[C@@H](NC(=O)C(C)(Cc1ccccc1F)NC(=O)[C@@H](NC(=O)CNC(=O)[C@H](CCC(N)=O)NC(=O)C(C)(C)NC(=O)[C@@H](N)Cc1ccc(O)cc1)[C@@H](C)O)[C@@H](C)O)[C@@H](C)CC)C(=O)N[C@@H](CCC(=O)O)C(=O)N[C@@H](Cc1ccc(O)cc1)C(=O)N[C@@H](CC(C)C)C(=O)N[C@@H](CC(C)C)C(=O)N[C@@H](CCC(=O)O)C(=O)NCCCCC(=O)N1CCC[C@H]1C(=O)N[C@@H](CO)C(=O)N[C@@H](CO)C(=O)NCC(=O)N[C@@H](C)C(=O)N1CCC[C@H]1C(=O)N1CCC[C@H]1C(=O)N1CCC[C@H]1C(=O)N[C@@H](CO)C(N)=O (stereo partly drawn) [Compound 12] | 0.0469 nM | 0.0243 nM | 0.165 nM |  |  | 
CC[C@H](C)[C@H](NC(=O)[C@H](Cc1ccccc1)NC(=O)[C@H](C)NC(=O)C(C)(C)NC(=O)[C@H](CCC(N)=O)NC(=O)[C@H](C)NC(=O)[C@H](CCCCNC(=O)COCCOCCNC(=O)CC[C@H](NC(=O)CCCCCCCCCCCCCCCCCCC(=O)O)C(=O)O)NC(=O)[C@H](CCCCN)NC(=O)[C@H](CC(=O)O)NC(=O)[C@H](CC(C)C)NC(=O)[C@](C)(CC(C)C)NC(=O)[C@@H](NC(=O)[C@H](CO)NC(=O)[C@H](Cc1ccc(O)cc1)NC(=O)[C@H](CC(=O)O)NC(=O)[C@H](CO)NC(=O)[C@@H](NC(=O)[C@H](Cc1ccccc1)NC(=O)[C@@H](NC(=O)CNC(=O)[C@H](CCC(N)=O)NC(=O)C(C)(C)NC(=O)[C@@H](N)Cc1ccc(O)cc1)[C@@H](C)O)[C@@H](C)O)[C@@H](C)CC)C(=O)N[C@@H](CCC(=O)O)C(=O)N[C@@H](Cc1ccc(O)cc1)C(=O)N[C@@H](CC(C)C)C(=O)N[C@@H](CC(C)C)C(=O)N[C@@H](CCC(=O)O)C(=O)NCC(=O)NCC(=O)N1CCC[C@H]1C(=O)N[C@@H](CO)C(=O)N[C@@H](CO)C(=O)NCC(=O)N[C@@H](C)C(=O)N1CCC[C@H]1C(=O)N1CCC[C@H]1C(=O)N1CCC[C@H]1C(=O)N[C@@H](CO)C(N)=O [retatrutide, Retatrutide, reference compound] |  |  |  | 0.046 nM | 0.0342 nM | 0.523 nM
